# Experiments:
# [1] = agricultural fungicides, Table B; water; cited from earlier work
# [2] = agricultural fungicides, Table B
# [3] = Margin of exposure versus NOEL (estimated total daily dose to a child in a swimming pool); conditions: agricultural fungicides, Table B
# Procedure: The herbicide preferably has a margin of exposure versus no observed effect level (“NOEL”) value of greater than 10, more preferably greater than 50, especially greater than 80, and more especially greater than 99. The margin of exposure versus NOEL is determined by estimating the total daily dose of the herbicide to a child in a swimming pool and determining the ratio of the NOEL to this. The total daily exposure may be estimated as follows. Oral exposure is estimated by assuming that the swimmer is in the water 3 hours per day, and that the swimmer ingests 50 milliliters of pool water per hour of swimming. It is also assumed that the herbicide will be present in the pool water at a concentration of 10 parts per million, equivalent to 10 milligrams per liter of pool water. The daily oral exposure is therefore estimated as the product of the swimming duration, the ingestion rate, and the concentration in the pool water. Dermal exposure is estimated by assuming the swimmer is in the water 3 hours per day, that the total body surface area, 8800 square centimeters, is immersed in the water, and that the herbicide permeates the skin at a rate, expressed in centimeters per hour, predicted by a model for skin permeation based on chemical structure, the Skinperm model, developed by W. F. ten Berge. A short description of the Skinperm model, can be accessed at: http://home.wxs.nl/˜wtberge/, which is incorporated herein by reference. The daily dermal exposure is then estimated as the product of the permeation rate, the concentration of the herbicide in the pool water (expressed in milligrams per cubic centimeter), the swimming duration, and the total body surface area. The total daily exposure is estimated as the sum of the daily oral and daily dermal exposure. The daily dose, expressed in milligrams per kilogram bodyweight per day, is then estimated as the total daily exposure divided by an assumed body weight of 22 kilograms.
Compound,Solubility [1],Margin of Exposure vs. RfD [2],Margin of Exposure vs NOEL [3]
"CC(C)(C)C(=O)C(Oc1ccc(Cl)cc1)n1cncn1 (stereo not drawn) [Triademefon, 1-(4-chlorophenoxy)-3,3-dimethyl-1-(1H-1,2,4-triazol-1-yl)-2-butanone]",260 µg/mL,0.4,104
"CC(C)(C)C(O)C(Oc1ccc(Cl)cc1)n1cncn1 (stereo not drawn) [Triademenol, Beta-(4-chlorophenoxy)-alpha-(1,1-dimethylethyl)-1-1H-1,2,4-triazole-1-ethanol]",260 µg/mL,0.5,50

# — patent publication US6710017B2, “Compositions and methods for controlling algae in recirculating water systems” (Avecia, Inc., priority 2000, dated 2004)
